Patent US20140274682A1, “COMPOSITIONS AND METHODS FOR REDUCING DUST AND REPELLING, CONTROLLING, OR DIRECTING AN INSECT” (priority 2013, published 2014)

Key:
[1] = Stability test of Poncho 600 with α-terpineol, clothianidin content by HPLC; format: physicochemical; conditions: in Poncho combined with α-terpineol; up to 54° C. for eight days
Experimental: Table 11 describes a stability test with a combination of α-terpineol and Poncho 600 evaluated at room temperature, 40° C., and 54° C. at zero time, 2 days, and 8 days as confirmed by HPLC.

[2] = Stability test of Poncho 600 with Eugenol, clothianidin content by HPLC; format: physicochemical; conditions: in Poncho combined with Eugenol; up to 54° C. for seven days
Experimental: Table 10 describes a stability test with a combination of Eugenol and Poncho evaluated at room temperature, 40° C., and 54° C. at zero time, 3 days, and 7 days as confirmed by high performance liquid chromatography (HPLC).

honeybees = test: Honeybee repulsion experiment at feeding stations; format: in vivo; conditions: 2% by weight with 50% sucrose solution in feeder
Experimental: FIG. 5 describes the feeding station arrangement (A and B) for the honeybee repulsion experiments described herein. As set forth in […], panel (A) sets forth the bee cage positions on the left portion of panel (A) with the randomized feeding station positions on the right portion of panel (A). Panel (B) sets forth an alignment of the randomized feeding station positions with a distance of two meters between feeding stations. A total of eight feeding stations were evaluated at a ten meter distance in front of the respective bee hives. The feeding stations were placed two meters apart from one another.
Honeybees were trained to deep feeders (eight positions), each containing a 50% sucrose solution for one day. After the honeybees were trained to each feeder, the 50% sucrose feeder at randomized positions 1-8 was replaced with a shallow feeder containing a combination of repelling compounds and a 50% sucrose solution according to Table 9. In accordance with FIGS. 5 and 6, 2% by weight of Camphor oil (T4), Ajowan oil (T5), Camphor powder (T6), Rosemary oil (T7), and 2-Decanone (T8) in combination with a 50% sucrose treatment were added to feeders on day two.
Table 9 describes active agents evaluated for bee repulsion and their randomized feeding station positions. As described in […], T1 (control), T2 (control), T3 (control), T4 (Camphor oil), T5 (Ajowan oil), T6 (Camphor powder), T7 (Rosemary oil), and T8 (2-Decanone).
FIG. 5 evaluates the number of bees visiting a respective feed station over a time interval. FIG. 6 sets forth the mean number of honeybees visiting feeding station over a period of four hours.

| Structure (SMILES) | Chemical stability of clothianidin content [1] | Chemical stability of clothianidin content [2] | Repellency to honeybees at 24 hours (honeybees) | Repellency to honeybees at 24 hours (honeybees; listed as 2-decanone) | Repellency to honeybees over the 4 hour assessment period (honeybees; full 4 hour assessment period) |
| --- | --- | --- | --- | --- | --- |
| CN/C(=N\[N+](=O)[O-])NCc1cnc(Cl)s1 [clothianidin] | exhibited chemical stability | exhibited chemical stability |  |  |  |
| CCCCCCCCC(C)=O [Compound 2-Decanone, 2-decanone (methyl-n-octyl ketone)] |  |  | exhibited repellency | still repellent | highly repellent |
